# Assay results from paper PMC11662004 (Communications Chemistry, 2024).
# “And” between values parts separate entries of the source, which are not always exact repeats. Equal entries are not always repeated. Where two headings read alike, the source gives them in different places.
# Experiments:
# NgTet1 [1] = target: T1, NgTet1 (Naegleria gruberi, UniProt D2W6T1); assay: biochemical; details: for normalised activity, %: AlphaScreen
# T1 construct: His6-tagged full-length Naegleria gruberi NgTet1 (321 a. a.) protein with a thrombin cleavage site; made in house; host or cells: E. coli BL21(DE3)
# T1 sequence (D2W6T1 1-321): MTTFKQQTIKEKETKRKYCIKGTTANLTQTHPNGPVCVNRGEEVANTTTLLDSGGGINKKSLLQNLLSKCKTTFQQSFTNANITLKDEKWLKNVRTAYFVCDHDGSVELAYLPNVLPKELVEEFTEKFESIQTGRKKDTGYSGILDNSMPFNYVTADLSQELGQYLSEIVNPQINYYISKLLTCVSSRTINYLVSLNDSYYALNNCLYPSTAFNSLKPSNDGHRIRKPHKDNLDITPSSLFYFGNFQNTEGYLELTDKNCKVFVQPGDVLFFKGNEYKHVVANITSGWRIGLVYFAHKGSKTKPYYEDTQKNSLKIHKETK
# Protocol: (Fig. 5a), were screened for inhibitory activity against NgTet1.
# (§1) Activity was normalised against reactions containing vehicle (DMSO). […] AS data shown as the mean of three experimental replicates (n = 3; mean ± SD); ^1H NMR data plotted from two independent replicates (n = 2); tabulated data reported as the mean of two and three independent replicates for ^1H NMR and AS, respectively (n = 2–3, SD reported for n = 3). N. d.: not determined; AS: AlphaScreen.
# Compounds in DMSO (100 nL) were pre-dispensed in a logarithmically linear concentration gradient onto 384-well ProxiPlates using an Echo® 550 acoustic liquid handler (Labcyte). NgTet1 was pre-incubated with the inhibitor dilution series in DMSO at room temperature for 10 min. Reactions were initiated by the addition of appropriate cofactors and DNA. […] The reactions were quenched by the addition of 30 mM EDTA (pH 4.2), 358 mM NaCl (5 μL) within the enzyme linear activity window (determined in Fig. S10). Concurrently, a mixture containing the anti-^5hmC antibody (1:2000 dilution) and AlphaScreen beads (1:62.5 dilution) in assay buffer was prepared and incubated at room temperature for 30 min. The AlphaScreen bead/antibody mixture was added to the quenched NgTet1 reactions (5 μL), and the complete mixture was incubated at room temperature for 1 h. Chemiluminescence was measured on a PHERAstar FS/FSX (BMG Labtech) equipped with an AlphaScreen 680 570 module. All AlphaScreen bead manipulations were performed under subdued lighting. Inhibition data was normalised to reactions containing vehicle only (1% v/v DMSO) and fitted using “log(inhibitor) vs. response—Variable slope (four parameters)” non-linear regression model on GraphPad Prism 5.
# NgTet1 [2] = target: T1, NgTet1; assay: biochemical; details: for potency change in the presence of non-substrate 5HC DNA: uncoupled 2OG turnover; for IC50: 5 μM NgTet1, 50 μM 2OG
# Protocol: as §1
# (§2) All ^1H NMR spectra were recorded at 25 °C using D2O as a reference for internal deuterium lock on a Bruker Avance III 700 MHz equipped with an inverse TCI cryoprobe in 3 or 5 mm diameter tubes with a total sample volume of 160 or 565 μL, respectively. The water signal was reduced using Perfect Echo excitation sculpting suppression. Chemical shifts are reported in ppm relative to D2O (δH = 4.70 ppm).
# NgTet1 was pre-incubated with inhibitor dilution series in DMSO-d6 at room temperature for 10 min (50 mM Tris-d11 [pH 7.5], 2% v/v DMSO-d6). Reactions were initiated by the addition of appropriate cofactors and DNA. […] The reactions were quenched by the addition of 9 mM NOG and 9 mM ZnCl2 in 90 mM Tris-d11 [pH 7.5] (20 μL) within the enzyme linear activity window (determined in Figure. S10). Samples were transferred to NMR tubes and subjected to ^1H NMR analysis. Data were processed as described above. Inhibition data was normalised to reactions containing vehicle only (1% v/v DMSO-d6) and fitted using “log(inhibitor) vs. response - Variable slope (four parameters)” non-linear regression model on GraphPad Prism 5.
# Activity was normalised against reactions containing vehicle only (100% activity). Data is shown as the mean of 2 independent replicates (n = 2; […]
# Fig. S10 Determination of linear NgTet1 enzymatic activity windows for inhibitor characterisation. a 1H NMR succinate detection time courses with no DNA, 5HC DNA (double- […]
# complementary 5'-ACC AC5mC GGT GGT-3'). b AlphaScreen 5hmC detection time course using […]
# courses shown. 1H NMR reaction conditions: 5 μM NgTet1, 2 mM sodium L-ascorbate, 100 μM […]
# v/v D2O. DNA was added to a final concentration of 20 μM of double-stranded DNA. […]
# NgTet1 [3] = target: T1, NgTet1; assay type: biochemical; details: for Km: read-out: KM^app (2OG)
# Protocol: Double-stranded 12 bp DNA oligomers were added at a final concentration of 20 µM. […]
# Double-stranded DNA oligomers were added at a final concentration of 20 µM. […]
# as §2
# Spectrometer settings were determined using a control sample containing all reaction components excluding enzyme. TET enzyme was added to an identical sample, and the resulting assay mixture was transferred to an NMR tube before deposition into the instrument. […] Spectrum recordings were carried out consecutively without delay. Data were processed using automated routines on MestReNova v14.2.0; signals of interest were integrated with absolute intensity scaling. ^1H NMR time courses reported in figures are representative results from two or three independent replicates.
# [4] = 5HC DNA, NMR, -Log[inhibitor] (M) 3
# [5] = 5HC DNA, NMR, -Log[inhibitor] (M) 4
# [6] = 5HC DNA, NMR, -Log[inhibitor] (M) 4.5
# [7] = 5HC DNA, NMR, -Log[inhibitor] (M) 5
# [8] = 5HC DNA, NMR, -Log[inhibitor] (M) 5.5
# [9] = 5HC DNA, NMR, -Log[inhibitor] (M) 6
# [10] = 5HC DNA, NMR, -Log[inhibitor] (M) 6.5
# [11] = 5HC DNA, NMR, -Log[inhibitor] (M) 7
# [12] = 5HC DNA, NMR, -Log[inhibitor] (M) 7.5
# [13] = IC50, 5mC DNA, NMR, 2OG decarboxylation with 20 µM 5mC DNA
# [14] = IC50, No DNA, NMR, uncoupled 2OG decarboxylation, no DNA
smiles,measurement,setting,value
"O=C(O)c1ccnc(C(=O)O)c1 [2,4-PDCA, 2,4-pyridinedicarboxylic acid]","normalised activity, %",NgTet1 [1]; -Log[inhibitor] (M) 8.03235,118.908% and 105.933% and 106.512% and 100% and 103.458% and 100.779% and 97.3678%
same,IC50,"NgTet1 [1]; read-out: IC50, 5mC ssDNA, AS",3.24 µM
same,potency change in the presence of non-substrate 5HC DNA,NgTet1 [2]; 1H NMR,< 2 fold
same,IC50,"NgTet1 [2]; 2OG decarboxylation with 20 µM 5HC DNA, read-out: IC50, 5HC DNA, NMR",4.27 µM
same,"normalised activity, %",NgTet1 [2]; [4],-0.17% and 2.97%
same,"normalised activity, %","NgTet1 [2]; 5HC DNA, NMR, -Log[inhibitor] (M) 3.5",6.05%
same,"normalised activity, %",NgTet1 [2]; [5],6.05% and 7.57%
same,"normalised activity, %",NgTet1 [2]; [6],13.51%
same,"normalised activity, %",NgTet1 [2]; [7],30.08%
same,"normalised activity, %",NgTet1 [2]; [8],63.79% and 61.71%
same,"normalised activity, %",NgTet1 [2]; [9],84.73% and 86.47%
same,"normalised activity, %",NgTet1 [2]; [10],94.82% and 93.19%
same,"normalised activity, %",NgTet1 [2]; [11],100.33%
same,"normalised activity, %",NgTet1 [2]; [12],99.56% and 98%
same,"normalised activity, %","NgTet1 [2]; 5mC DNA, NMR, 2,4-PDCA series -Log[inhibitor] (M) 3",1.811% and 1.747%
same,"normalised activity, %","NgTet1 [2]; 5mC DNA, NMR, -Log[inhibitor] (M) 3.47712",1.338% and 1.107%
same,"normalised activity, %","NgTet1 [2]; 5mC DNA, NMR, -Log[inhibitor] (M) 3.95424",2.094% and 0.5576%
same,"normalised activity, %","NgTet1 [2]; 5mC DNA, NMR, -Log[inhibitor] (M) 4.43136",2.845% and 5.31%
same,"normalised activity, %","NgTet1 [2]; 5mC DNA, NMR, -Log[inhibitor] (M) 4.90848",7.1385% and 9.765%
same,"normalised activity, %","NgTet1 [2]; 5mC DNA, NMR, -Log[inhibitor] (M) 5.38561",30.9766% and 31.0028%
same,"normalised activity, %","NgTet1 [2]; 5mC DNA, NMR, -Log[inhibitor] (M) 5.86273",71.7609% and 72.2416%
same,"normalised activity, %","NgTet1 [2]; 5mC DNA, NMR, -Log[inhibitor] (M) 6.33985",92.2674% and 93.2727%
same,"normalised activity, %","NgTet1 [2]; 5mC DNA, NMR, -Log[inhibitor] (M) 6.81697",96.6317% and 94.5918%
same,"normalised activity, %","NgTet1 [2]; 5mC DNA, NMR, -Log[inhibitor] (M) 7.29409",100.253% and 99.2143%
same,IC50,NgTet1 [2]; [13],2.45 µM
same,IC50,NgTet1 [2]; [14],8.13 µM
same,"normalised activity, %","NgTet1 [2]; No DNA, NMR, -Log[inhibitor] (M) 3",1.858% and 5.513%
same,"normalised activity, %","NgTet1 [2]; No DNA, NMR, -Log[inhibitor] (M) 3.47712",5.794% and 4.915%
same,"normalised activity, %","NgTet1 [2]; No DNA, NMR, -Log[inhibitor] (M) 3.95424",6.819% and 9.688%
same,"normalised activity, %","NgTet1 [2]; No DNA, NMR, -Log[inhibitor] (M) 4.43136",23.271% and 23.2057%
same,"normalised activity, %","NgTet1 [2]; No DNA, NMR, -Log[inhibitor] (M) 4.90848",39.7721% and 42.1215%
same,"normalised activity, %","NgTet1 [2]; No DNA, NMR, -Log[inhibitor] (M) 5.38561",73.0359% and 62.1963%
same,"normalised activity, %","NgTet1 [2]; No DNA, NMR, -Log[inhibitor] (M) 5.86273",95.5986% and 84.3948%
same,"normalised activity, %","NgTet1 [2]; No DNA, NMR, -Log[inhibitor] (M) 6.33985",102.544% and 92.4597%
same,"normalised activity, %","NgTet1 [2]; No DNA, NMR, -Log[inhibitor] (M) 6.81697",101.45% and 102.432%
same,"normalised activity, %","NgTet1 [2]; No DNA, NMR, -Log[inhibitor] (M) 7.29409",100.407% and 97.5514%
"O=C(O)CCC(=O)C(=O)O [2OG, 2-oxoglutarate]",decrease of 2OG KM^app on substrate saturation,NgTet1 [3]; 20 µM 5mC DNA vs no DNA,~2 fold
same,Vmax^app,NgTet1 [3]; No DNA,2.83 µM/min
same,kcat^app,NgTet1 [3]; No DNA,0.0095 s⁻¹
same,Km,"NgTet1 [3]; No DNA, 5 μM NgTet1",284 µM
same,Km,NgTet1 [3]; with 20 µM 5mC DNA,150 µM
same,Vmax^app,NgTet1 [3]; with 20 µM 5mC DNA,8.31 µM/min
"O=C(O)c1ccc(O)c2ncccc12 [IOX1, 5-carboxy-8-hydroxyquinoline]",IC50,NgTet1 [1],26.3 µM
same,"normalised activity, %",NgTet1 [1]; -Log[inhibitor] (M) 4.00432,-0.5677% and -0.5665% and -1.091%
same,"normalised activity, %",NgTet1 [1]; -Log[inhibitor] (M) 4.5272,43.4249% and 52.8284% and 51.0837%
same,"normalised activity, %",NgTet1 [1]; -Log[inhibitor] (M) 5.00432,78.4888% and 85.3739% and 75.186%
same,"normalised activity, %",NgTet1 [1]; -Log[inhibitor] (M) 5.60638,80.6565% and 92.476% and 89.0303%
same,"normalised activity, %",NgTet1 [1]; -Log[inhibitor] (M) 6.0945,91.4843% and 93.7065% and 96.6507%
same,"normalised activity, %",NgTet1 [1]; -Log[inhibitor] (M) 6.61738,100.743% and 110.536% and 100.94%
same,"normalised activity, %",NgTet1 [1]; -Log[inhibitor] (M) 7.0945,88.4496% and 111.251% and 97.2074%
same,"normalised activity, %",NgTet1 [1]; -Log[inhibitor] (M) 7.69656,87.9129% and 106.34% and 94.3692%
same,"normalised activity, %",NgTet1 [1]; -Log[inhibitor] (M) 8.20844,99.4426% and 116.115% and 101.926%
same,"normalised activity, %",NgTet1 [1]; -Log[inhibitor] (M) 8.73132,100% and 102.574%
same,potency change in the presence of non-substrate 5HC DNA,NgTet1 [2]; 1H NMR,< 2 fold
same,"normalised activity, %",NgTet1 [2]; [4],3.36% and 6.05%
same,"normalised activity, %",NgTet1 [2]; [5],65.88% and 69.85%
same,"normalised activity, %",NgTet1 [2]; [6],102.42% and 107.78%
same,"normalised activity, %",NgTet1 [2]; [7],115.52% and 112.71%
same,"normalised activity, %",NgTet1 [2]; [8],111.12% and 108.5%
same,"normalised activity, %",NgTet1 [2]; [9],104.59% and 105.6%
same,"normalised activity, %",NgTet1 [2]; [10],111.93% and 98%
same,"normalised activity, %",NgTet1 [2]; [11],104.59% and 103.37%
same,"normalised activity, %",NgTet1 [2]; [12],102.45% and 101.86%
same,potency decreased relative to AS assay,"NgTet1 [2]; 5mC DNA substrate-saturating conditions, 1H NMR",5 fold
same,IC50,"NgTet1 [2]; IC50, 5HC DNA, NMR, 2OG decarboxylation with 20 µM 5HC DNA",110 µM
same,IC50,NgTet1 [2]; [13],123 µM
same,IC50,NgTet1 [2]; [14],57.5 µM
